According to patent publication US20040234972A1, “Method for identifying and purifying smooth muscle progenitor cells” (priority 2001, published 2004):

Columns and labels:
[1] = test system: A404 cells; test: RA-induced SMC differentiation of A404 cells, immunocytochemical staining; format: cell-based, mouse
Method: The culture methods for SMC differentiation are outlined in FIG. 1. Cells were trypsinized and plated in a 10 cm dish in α-MEM containing 7.5% FBS and 1 μmol/L all trans-retinoic acid (Sigma, R2625) at a density of 10,000 cells/cm^2 (day 0). The culture medium was replaced once on day 2. On day 3, RA was removed from the culture medium. On day 4, cells were trypsinized and plated in two 10 cm dishes in the medium containing […] puromycin (Clontech). Except otherwise noted, samples for various analyses were prepared from cells treated with puromycin for two days. During puromycin selection, the medium was replaced every day.
Western blot analysis was performed as previously described Regan et al., J. Clin Invest. 2000; 106:1139-47. SM-MHC expression was assessed using a rabbit anti-chicken SM-MHC antibody (1:200,000, a gift from Dr. U. Groschel-Stewart). The specificity of this antibody for mouse MHC isoforms has been thoroughly characterized. The antibody was not reactive with nonmuscle MHCs in Western blotting. Immnunocytochemical staining was performed using Vectastain ABC-AP kit (Vector Laboratories). Antibodies and dilutions used were 1:1000 anti-SM α-actin antibody (Sigma), 1:500 anti-SM-MHC antibody, and 1:1000 anti-neuron-specific β-tubulin antibody (TUJ1, Berkeley Antibody Company).

[2] = test system: P19 cells; test: RA-induced SMC differentiation of parental P19 cells; format: cell-based, mouse; conditions: within 4 days
Method: P19 cells were obtained from American Type Culture Collection (CRL-1825). Cells were maintained in α-minimum essential medium (α-MEM, Sigma, M0644) supplemented with 7.5% fetal bovine serum (FBS), 200 μg/ml L-glutamine and penicillin/streptomycin (Lifetechnologies). For transfection and differentiation induction experiments, P19 cell cultures less than 6 passages from the initial culture obtained from ATCC were used. […] Cells were trypsinized and plated in a 10 cm dish in α-MEM containing 7.5% FBS and 1 μmol/L all trans-retinoic acid (Sigma, R2625) at a density of 10,000 cells/cm^2 (day 0). The culture medium was replaced once on day 2. On day 3, RA was removed from the culture medium. On day 4, cells were trypsinized and plated in two 10 cm dishes in the medium containing 0.5 ng/ml puromycin (Clontech). Except otherwise noted, samples for various analyses were prepared from cells treated with puromycin for two days. During puromycin selection, the medium was replaced every day.

[3] = RA-treated A404 cells, after 2-days of puromycin treatment

Row | SMILES | cells positive for TUJ1 [1, 3] [%] | fraction of neuron-like cells [1, 3] | number of neuronal cells ([1]; RA-treated A404 cells, five-days of puromycin treatment) | cells stained positively for both SM α-actin and SM-MHC ([1]; RA-treated A404 cells, following 2 to 5-days treatment with puromycin) [%] | α-actin negative neuron-like cells, fraction of total cell population ([1]; by 4 days after RA treatment, no puromycin) | fraction of total A404 cell population stained positively for SM α-actin ([1]; by 4 days following RA treatment, no puromycin) [%] | cells estimated to differentiate into SMCs [2]
1 | COc1ccc(C[C@H](N)C(=O)N[C@H]2[C@@H](O)[C@H](n3cnc4c(N(C)C)ncnc43)O[C@@H]2CO)cc1 [puromycin] | < 0.1 | 5-10% | less than 5% | > 90 |  |  | 
2 | CC1=C(/C=C/C(C)=C/C=C/C(C)=C/C(=O)O)C(C)(C)CCC1 [RA, all trans-retinoic acid] |  |  |  |  | 10-20% | > 80 | 1-5%
